This note sets out measurements from patent US20160346249A1 (priority 2012, published 2016).

Structures are written as SMILES. Read-outs that look alike come from different tables or passages of the source.

Series [1] is described as follows: In vitro metabolism in human hepatocytes. The conditions noted are these: male, human, 4 h, 87 μM. How it is done:
Cryopreserved human hepatocytes (male) that are prepared by XenoTech, LLC (Lenexa, Kans.), are thawed on the day of use and resuspended in Waymouth's incubation media. The enzymatic activity of hepatocytes is monitored using 7-ethoxycoumarin and 7-hydroxycoumarin as substrates. […] The incubations are carried out for 4 hours with 1×10^6 viable cells/ml. […] At 0 and 4 hour, cell suspensions are extracted using two volumes of ice cold methanol. After centrifugation, the extracts are stored at −20° C. until further sample processing. The solvent in the samples are dried under a stream of nitrogen, and resuspended in methanol:water (1:1) before analysis.
The extracts of the 4 hour incubation mixture are analyzed by liquid chromatography/electrospray ionization-mass spectrometry (LC/ESI-MS) in the positive and negative ion modes to screen for possible metabolites. HPLC Methods 1 and 2 are used to find potential metabolites, and the HPLC and mass spectrometry systems are described in Table 56. The same instrumentation and methods in HPLC Method 1 are used in HPLC Method 2 with the exception that the mobile phases and gradient are changed to 0.4% HCOOH in H2O for mobile A and CH3OH for mobile phase B. The mass spectrometer is LCQ™ Ion Trap Mass Spectrometer and is in either the positive or negative electrospray mode with the ion spray set at 4.5 kV. The capillary temperature is 250° C., the nitrogen sheath gas flow rate is ˜80 unit, the auxiliary nitrogen gas flow rate is 20 unit, and the collision gas is helium.

For series [2] the following is noted: Crl:CD-1(ICR) BR, mouse, in vivo.
The nature of series [3]: 26-week rat toxicity and toxicokinetic study. Format: in vivo. The note with it: for AUC(0-t): Crl:CD(SD)IGS BR, rat, plasma, po, 8 mg/kg/day, EB-1010 8 mg/kg/day, read-out: AUC0-24 of metabolite. On the procedure:
A portion of the animals from each group was maintained for an additional 4-week post-treatment recovery period.
For toxicology assessment, groups comprised thirty animals of each gender. Assessments included clinical observations, body weight, and food consumption measures noted periodically during the study. […] Ophthalmic examinations were performed during Weeks 1 and 13. […] In addition, the liver, vagina, and ovaries were identified as potential target tissues and were examined microscopically for all animals from all groups at the primary and recovery necropsies. […] 10 animals of each gender from each group were held to week 30 for a 4-week post-treatment recovery period.
For the toxicokinetic studies, there were ten animals of each gender in each group.

Series [4] can be described thus: 12-month dog toxicity and toxicokinetic study. Type of series: in vivo. The note with it: dog, in vivo. How it is done: Blood samples were collected on Days 0, 91, 181, 268 and 358 from up to 4 animals/gender/group. Plasma samples collected on Days 91, 181, 268, as well as all plasma samples collected from the control group were not evaluated.
For toxicology assessment four dogs of each gender were included in each group. Assessments included clinical observations, body weight, and food consumption measures which were recorded periodically during the study. Ophthalmic examinations were performed during Weeks 1, 12, 25, 38, 51, and 55 (recovery period). Electrocardiograms were recorded during Weeks 2, 12, 25, 38, and 51. Clinical pathology evaluations (hematology, serum chemistry, and urinalysis) were performed during Weeks 1, 12, 25, 38, 52, and 56 (recovery period). At termination, complete necropsies were performed on all dogs and selected organs were weighed. Selected tissues from the control and 20 (15) mg/kg/day group animals and animals euthanized in extremis were examined microscopically. Sections of livers from dogs in the control and 20 (15) mg/kg/day groups were collected at both the primary and 4-week post-treatment recovery necropsies for assessment of drug metabolism enzyme (microsomal cytochrome P450) activity.

Take `O=C1NCC2(c3ccc(Cl)c(Cl)c3)CC12` (centres unmarked) [EB-10101, 5-(3,4-dichloro-phenyl)-3-aza-bicyclo[3.1.0]hexan-2-one]: the “share of the metabolites formed” value in series [1] was “about 63%”. Further, the “AUC0-24 of metabolite relative to parent drug” value in series [2] is 2-5 fold; in series [2] (150 mg/kg/day), not above 10 fold; in series [3] (Day 0), “approximately 7 fold”; in series [3] (Day 177), not above 14 fold. Moreover, the AUC(0-t) came to 88100 ng·h/mL in series [3] (female, females, Day 177) and 80400 ng·h/mL in series [3] (male, males, Day 177). Also, the “AUC0-24 of metabolite relative to parent drug, any individual animal” value in series [4] was not above 3.5 fold.
